From ChEMBL document CHEMBL1201862, “PubChem BioAssay data set” (2004)
Active and inactive are the calls of the source.

Key:
[1] = target: Glucose-6-phosphate 1-dehydrogenase (Homo sapiens, UniProt P11413); assay: human G6PD enzyme inhibitors, dose response, selectivity assay for P. falciparum G6PD inhibitor project, biochemical, fluorescence (AID 504792); format: functional
[2] = LGR2 antagonists, dose response, cell-based, HEK293, CRE-luciferase reporter, cherry pick, set 2 (AID 743343); format: functional;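 note: transfected cells were stimulated with diluted bursicon conditioned medium after compound addition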
[3] = A549 cell cytotoxicity, dose response, cytotoxicity control, plate reader, cherry-pick, antagonist series (AID 743412); format: functional, cell-based
[4] = MC4R antagonists, dose response, counter-screen for LGR2 antagonist project, cell-based, plate reader, cherry pick (AID 743444); format: functional;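 note: transfected HEK 293 cells stimulated with alpha-MSH peptide; potency of inhibitors of the alpha-MSH evoked signal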
[5] = target: T1, Long-chain-fatty-acid--AMP ligase FadD28 (Mycobacterium tuberculosis, UniProt P9WQ59); assay: Fluorescence polarization aasay to screen for inhibitors that compete for the binding of FadD28 to a bisubstrate Measured in Biochemical System Using Plate Reader - 2147-01_Inhibitor_Dose_CherryPick_Activity.; format: functional, Mycobacterium tuberculosis H37Rv
T1 sequence (P9WQ59 whole entry): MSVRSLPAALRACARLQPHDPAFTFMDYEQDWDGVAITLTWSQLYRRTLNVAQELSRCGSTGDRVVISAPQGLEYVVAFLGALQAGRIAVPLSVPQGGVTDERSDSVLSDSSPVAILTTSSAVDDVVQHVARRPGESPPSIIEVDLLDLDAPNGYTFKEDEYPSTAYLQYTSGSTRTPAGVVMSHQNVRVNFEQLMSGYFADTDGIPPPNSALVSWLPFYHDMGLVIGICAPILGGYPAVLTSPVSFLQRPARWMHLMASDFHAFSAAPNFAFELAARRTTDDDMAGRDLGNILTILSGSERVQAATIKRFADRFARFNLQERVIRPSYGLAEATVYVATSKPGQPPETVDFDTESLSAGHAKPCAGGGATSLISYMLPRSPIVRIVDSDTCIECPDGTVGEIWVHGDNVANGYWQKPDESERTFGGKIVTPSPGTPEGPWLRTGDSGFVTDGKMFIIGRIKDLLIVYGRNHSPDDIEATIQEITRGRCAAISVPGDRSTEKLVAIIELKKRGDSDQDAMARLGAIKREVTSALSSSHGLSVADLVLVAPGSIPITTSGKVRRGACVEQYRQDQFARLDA

[6] = HEp-2 cell cytotoxicity, dose response, cytotoxicity control for RSV inhibitor project, HTS (AID 2410); format: functional; conditions: human respiratory syncytial virus
[7] = target: T2, Carboxy-terminal domain RNA polymerase II polypeptide A small phosphatase 1 (Homo sapiens, UniProt Q9GZU7); assay: inhibitors of CTDSP1, concentration-response testing, biochemical assay, absorbance-based, actives from ultra-high-throughput screening (AID 540297); format: functional
T2 sequence (Q9GZU7 whole entry): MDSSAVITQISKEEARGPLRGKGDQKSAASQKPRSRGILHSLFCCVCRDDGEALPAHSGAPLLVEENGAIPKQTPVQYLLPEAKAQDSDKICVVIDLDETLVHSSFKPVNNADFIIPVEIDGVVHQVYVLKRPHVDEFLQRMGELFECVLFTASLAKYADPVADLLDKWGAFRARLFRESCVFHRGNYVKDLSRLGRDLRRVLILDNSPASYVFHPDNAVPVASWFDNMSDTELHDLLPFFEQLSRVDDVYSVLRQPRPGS

[8] = target: Luciferin 4-monooxygenase (Photinus pyralis, UniProt P08659); assay: firefly luciferase enzyme inhibitors, dose response, biochemical, luminescence (AID 1891)
[9] = non-specific cell cytotoxicity, dose response, cytotoxicity control for PAX8 inhibitor project, plate reader, dry powder samples (AID 743021); format: functional, cell-based
[10] = Luminescence Cell-Based Dose Confirmation HTS to Identify Inhibitors of Platelet Dense Granule Release. [Related pubchem assays: 1663 (Primary HTS), 1678 (Summary of Project)]; format: functional
Cytochrome P450 3A4 = Cytochrome P450 3A4 (Homo sapiens, UniProt P08684);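 note: CYP3A4 tested as one member of a cytochrome P450 panel screen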
[11] = target: T3, Heat shock factor protein 1 (Mus musculus, UniProt P38532); assay: HSF1 potentiators in luciferase reporter cells, confirmation, cell-based, NIH3T3, luminescence, dose retest (AID 435004); format: functional;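 note: stress induced by proteasome inhibitor MG132 added 30 min after compound; luciferase reporter driven by HSF1 response element in NIH3T3 cells; actives raise luminescence as potentiators of the MG132 stress response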
T3 sequence (P38532 whole entry): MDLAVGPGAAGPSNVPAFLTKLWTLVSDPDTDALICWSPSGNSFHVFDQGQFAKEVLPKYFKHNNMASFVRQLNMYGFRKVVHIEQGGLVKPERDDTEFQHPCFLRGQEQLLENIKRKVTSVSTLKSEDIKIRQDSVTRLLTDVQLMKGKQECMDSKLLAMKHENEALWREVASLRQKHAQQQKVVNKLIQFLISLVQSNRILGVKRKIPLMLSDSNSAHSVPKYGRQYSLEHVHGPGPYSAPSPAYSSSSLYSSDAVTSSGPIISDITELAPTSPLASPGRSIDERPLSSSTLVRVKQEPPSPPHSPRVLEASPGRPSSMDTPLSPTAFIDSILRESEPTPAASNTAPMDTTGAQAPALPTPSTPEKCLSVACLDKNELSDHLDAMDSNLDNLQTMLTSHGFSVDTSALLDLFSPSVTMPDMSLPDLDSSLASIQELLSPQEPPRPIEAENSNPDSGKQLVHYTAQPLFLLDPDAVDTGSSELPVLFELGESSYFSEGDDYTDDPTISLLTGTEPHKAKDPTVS

Cytochrome P450 1A2 = target: T4, Cytochrome P450 1A2 (Homo sapiens, UniProt P05177);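 note: PubChem cytochrome P450 panel assay, CYP1A2 panel member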
T4 sequence (P05177 whole entry): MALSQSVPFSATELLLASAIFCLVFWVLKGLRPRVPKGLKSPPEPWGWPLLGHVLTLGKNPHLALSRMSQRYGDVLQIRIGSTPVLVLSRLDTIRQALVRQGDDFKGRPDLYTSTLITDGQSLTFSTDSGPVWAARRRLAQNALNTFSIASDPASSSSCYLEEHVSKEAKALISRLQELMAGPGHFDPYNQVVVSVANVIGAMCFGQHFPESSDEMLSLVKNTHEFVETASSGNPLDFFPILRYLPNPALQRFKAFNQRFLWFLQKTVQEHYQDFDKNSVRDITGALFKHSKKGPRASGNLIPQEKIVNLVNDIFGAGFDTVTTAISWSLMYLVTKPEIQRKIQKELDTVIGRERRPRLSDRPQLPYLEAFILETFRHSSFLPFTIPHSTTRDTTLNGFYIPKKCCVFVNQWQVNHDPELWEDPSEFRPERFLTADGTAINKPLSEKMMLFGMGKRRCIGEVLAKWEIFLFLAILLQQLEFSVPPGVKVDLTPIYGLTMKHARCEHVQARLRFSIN

SN12K1 = assay: cells; format: functional; conditions: Homo sapiens
P388 = assay: cells; format: functional; conditions: Mus musculus
P388/ADR = assay: cells; format: functional; conditions: Mus musculus
[12] = target: Dual specificity tyrosine-phosphorylation-regulated kinase 1A (Rattus norvegicus, UniProt Q63470); format: biochemical, Homo sapiens
[13] = control 3'UTR Renilla luciferase suppression, dose response, counter-screen for Shn3 inhibitor project, cell-based, Clone20-Shn3RL, cherry-picked (AID 624133); format: functional
[14] = Shn3 3'UTR reporter inhibitors, dose response, cell-based, Clone20 osteoblasts, firefly luciferase, cherry-picked (AID 624132); format: functional;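 note: firefly luciferase luminescence from reporter carrying the Shn3 3'UTR in osteoblasts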
[15] = HepG2 cell cytotoxicity, dose response, cytotoxicity control for Shn3 inhibitor project, CellTiter-Glo, cherry-picked (AID 624134); format: functional, cell-based
Paired box protein Pax-8 = Paired box protein Pax-8 (Homo sapiens, UniProt Q06710); assay: inhibitors of PAX8-driven TPO luciferase reporter, dose response, RMG-I cells, cherry-pick (AID 687027); format: functional, cell-based;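 note: luciferase reporter driven by Pax8 target thyroperoxidase promoter measured by SteadyGlo luminescence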
[16] = target: T5, Low molecular weight phosphotyrosine protein phosphatase (Homo sapiens, UniProt P24666); format: functional; conditions: read-out: IC50_Mean;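 note: Dose-response confirmation assay measuring inhibition of LMPTP enzyme activity by fluorescence intensity read-out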
T5 sequence (P24666 whole entry): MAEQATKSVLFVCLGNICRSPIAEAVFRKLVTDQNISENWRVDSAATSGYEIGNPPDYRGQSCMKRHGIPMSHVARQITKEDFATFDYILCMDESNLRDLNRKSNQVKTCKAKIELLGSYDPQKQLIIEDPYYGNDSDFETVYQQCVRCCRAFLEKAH

cells [17] = format: functional, cell-based
cells [18] = format: functional, cell-based; remark: listed apart in the source

Glucose-6-phosphate 1-dehydrogenase, sequence (P11413 whole entry): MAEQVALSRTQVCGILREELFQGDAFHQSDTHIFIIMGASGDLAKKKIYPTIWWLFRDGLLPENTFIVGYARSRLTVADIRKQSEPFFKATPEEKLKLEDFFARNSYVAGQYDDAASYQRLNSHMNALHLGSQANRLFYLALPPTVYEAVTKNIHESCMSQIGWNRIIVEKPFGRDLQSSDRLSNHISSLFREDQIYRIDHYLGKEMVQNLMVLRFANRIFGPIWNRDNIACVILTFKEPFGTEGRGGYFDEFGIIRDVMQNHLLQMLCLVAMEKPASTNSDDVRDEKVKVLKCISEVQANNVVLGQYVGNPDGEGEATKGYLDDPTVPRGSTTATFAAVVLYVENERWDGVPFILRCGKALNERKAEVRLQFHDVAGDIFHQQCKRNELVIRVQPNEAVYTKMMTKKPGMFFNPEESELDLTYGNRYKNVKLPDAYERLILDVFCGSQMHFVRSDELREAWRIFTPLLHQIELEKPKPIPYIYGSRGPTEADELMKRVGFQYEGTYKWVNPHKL
Paired box protein Pax-8, sequence (Q06710 whole entry): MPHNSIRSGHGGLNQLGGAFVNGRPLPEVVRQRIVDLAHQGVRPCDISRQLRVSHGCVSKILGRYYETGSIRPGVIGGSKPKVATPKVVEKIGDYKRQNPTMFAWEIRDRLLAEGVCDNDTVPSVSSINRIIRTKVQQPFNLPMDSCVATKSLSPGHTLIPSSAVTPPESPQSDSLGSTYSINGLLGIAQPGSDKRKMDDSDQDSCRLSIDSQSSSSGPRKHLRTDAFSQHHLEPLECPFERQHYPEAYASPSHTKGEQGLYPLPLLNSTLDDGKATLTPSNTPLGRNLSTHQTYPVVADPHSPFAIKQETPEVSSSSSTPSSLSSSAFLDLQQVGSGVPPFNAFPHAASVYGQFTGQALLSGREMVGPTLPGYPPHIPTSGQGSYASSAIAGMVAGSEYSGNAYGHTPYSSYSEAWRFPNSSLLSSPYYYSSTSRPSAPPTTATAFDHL
Cytochrome P450 3A4, sequence (P08684 whole entry): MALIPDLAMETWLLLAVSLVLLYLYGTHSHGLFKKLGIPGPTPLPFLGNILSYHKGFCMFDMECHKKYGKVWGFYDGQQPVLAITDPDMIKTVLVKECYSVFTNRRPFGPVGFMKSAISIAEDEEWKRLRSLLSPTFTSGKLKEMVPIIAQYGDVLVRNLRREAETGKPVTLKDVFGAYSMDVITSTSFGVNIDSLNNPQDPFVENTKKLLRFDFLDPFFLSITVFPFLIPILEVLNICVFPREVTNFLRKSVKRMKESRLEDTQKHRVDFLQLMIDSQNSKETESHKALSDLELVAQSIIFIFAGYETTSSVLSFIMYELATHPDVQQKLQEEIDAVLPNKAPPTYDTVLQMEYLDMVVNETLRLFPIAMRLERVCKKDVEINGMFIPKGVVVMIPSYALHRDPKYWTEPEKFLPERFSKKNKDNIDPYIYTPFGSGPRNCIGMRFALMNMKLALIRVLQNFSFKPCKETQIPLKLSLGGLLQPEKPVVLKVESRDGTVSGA
Luciferin 4-monooxygenase, sequence (P08659 whole entry): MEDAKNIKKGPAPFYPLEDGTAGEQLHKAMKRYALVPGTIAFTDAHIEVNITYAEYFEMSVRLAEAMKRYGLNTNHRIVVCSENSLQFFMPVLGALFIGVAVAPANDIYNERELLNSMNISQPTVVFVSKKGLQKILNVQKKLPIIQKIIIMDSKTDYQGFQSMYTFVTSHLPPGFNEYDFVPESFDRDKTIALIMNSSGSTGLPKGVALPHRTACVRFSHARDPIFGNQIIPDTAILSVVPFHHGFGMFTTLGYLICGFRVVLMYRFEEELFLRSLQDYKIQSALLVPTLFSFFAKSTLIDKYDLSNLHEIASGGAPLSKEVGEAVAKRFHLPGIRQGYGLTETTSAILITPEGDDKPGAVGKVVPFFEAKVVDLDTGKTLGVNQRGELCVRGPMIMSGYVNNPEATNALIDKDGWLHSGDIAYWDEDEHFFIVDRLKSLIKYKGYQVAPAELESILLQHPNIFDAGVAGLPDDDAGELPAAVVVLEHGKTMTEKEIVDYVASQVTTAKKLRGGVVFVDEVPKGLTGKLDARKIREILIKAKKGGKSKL

In the case of `Cc1ccc(-c2csc(NC(=O)c3ccc(Br)cc3)c2C(=O)O)cc1`, the IC50 [1] is reported as > 80 µM (inactive).
In the case of `Cc1ccc2[nH]c(-c3ccc(NC(=O)C4CCCO4)cc3)nc2c1` (configuration not stated), the AC50 [2] is reported as 5.48 µM (active), the AC50 [3] is reported as > 52 µM (inactive) and the AC50 [4] is reported as 11.9 µM (active).
In the case of `Cc1cccc(NC(=O)CN2C(=O)S/C(=C\c3cc(C)n(C)c3C)C2=O)c1`, the AC50 [5] is reported as 0.381 µM (active).
For `C=CCn1cc(CN2CCC(C(=O)Nc3ccc(Oc4cccnc4)cc3)CC2)c(C)n1`, the AC50 [5] was 21 µM (active).
For `O=C(CNC(=O)c1ccco1)OCC(=O)c1ccc([N+](=O)[O-])cc1`, the IC50 [1] was > 80 µM (inactive).
With `CC(C)c1ccc(/C=C2\SC(=O)N(CC(=O)NC3C=CS(=O)(=O)C3)C2=O)cc1` (configuration not stated) the CC50 [6] was 18.8 µM (active) and the IC50 [7] was 11.8 µM (active).
With `CN(C)S(=O)(=O)c1ccc(NC(=O)Cc2ccc(S(=O)(=O)N3CCOCC3)s2)cc1` the IC50 [7] was 9.34 µM (active).
In the case of `O=c1cc(Nc2ccc3c(c2)OCCO3)[nH]c(=O)n1C1CCCCC1`, the AC50 [5] is reported as 61.1 µM (active).
For `COc1cccc(CC(=O)Nc2nc3c(s2)C(=O)CC(C)(C)C3)c1`, the EC50 [8] was > 112 µM (not active), the AC50 [9] was 41.9 µM (active) and the EC50 [10] was > 112 µM (not active).
With `COc1cccc2sc(NN)nc12` the AC50 [5] was > 100 µM (inactive).
With `COc1cc2c(cc1NC(=O)CSc1nc3ccccc3[nH]1)oc1ccccc12` the IC50 [7] was 17.1 µM (active).
With `O=C1CN(C(=O)c2ccc(Br)o2)C(c2ccc(F)cc2)c2cc(Cl)ccc2N1` (configuration not stated) the AC50 (Cytochrome P450 3A4) was “inconclusive”, the EC50 [11] was > 260 µM (inactive) and the AC50 (Cytochrome P450 1A2) was 0.0631 µM (inconclusive).
For `CC1C(=O)C(C)C(c2ccccc2)N(N=O)C1c1ccccc1` (configuration not stated), the GI50 (SN12K1) was 42.8 µM (inactive), the GI50 (P388) was > 100 µM (inactive) and the GI50 (P388/ADR) was > 100 µM (inactive).
With `CCCCN.N#C/C(=C\c1ccc(O)cc1)C(=O)O` the AC50 [12] was 3.24 µM (active).
For `COC1CC2C=C(C)C=CC=CC(=O)NC(c3ccccc3)CC=CCCC(O)CC(O)=C2C1=O` (configuration not stated), the AC50 [9] was 4.97 µM (active), the AC50 [13] was 1.48 µM (active) and the AC50 [14] was 0.629 µM (active). For the same compound, the AC50 [15] was 3.98 µM (active) and the AC50 (Paired box protein Pax-8) was 0.673 µM (active).
In the case of `COc1ccc(OC)c(N(CCN2C(=O)c3ccccc3C2=O)C(=O)CCl)c1`, the AC50 [9] is reported as 2.34 µM (active) and the AC50 (Paired box protein Pax-8) is reported as 0.966 µM (active).
For `CC1=CCCC2C1(C)CCC(C)C2(C)Cc1cc(O)ccc1O` (configuration not stated), the GI50 (SN12K1) was 4.2 µM (inactive), the GI50 (P388) was 1.37 µM (inactive) and the GI50 (P388/ADR) was 1.63 µM (inactive).
For `O=C(O)c1ccc(/C=N/NC(=O)c2cc3c(ccc4ccccc43)o2)cc1`, the IC50 [16] was 16.2 µM (active).
With `CN(C)S(=O)(=O)c1ccc(C(=O)NCC(=O)N/N=C/c2ccccc2)cc1` the IC50 (cells [17]) was > 29.9 µM (inactive) and the EC50 (cells [18]) was > 29.9 µM (inactive).
In the case of `NCc1c(O)ccc2ccccc12`, the IC50 (cells [17]) is reported as > 29.9 µM (inactive) and the EC50 (cells [18]) is reported as > 29.9 µM (inactive).
In the case of `CN(C)CCN1C(=O)c2cccc3cc(N)cc(c23)C1=O` [AMONAFIDE], the GI50 (SN12K1) is reported as 2.15 µM (inactive), the GI50 (P388) is reported as 0.524 µM (active) and the GI50 (P388/ADR) is reported as 1.14 µM (inactive).
For `C[C@H](N)C(=O)N[C@@H]1[C@H]2C(=C(O)C[C@@H](O)[C@@H]2O)C(=O)O[C@]1(C)C(Cl)Cl` [BACTOBOLIN], the GI50 (SN12K1) was 0.297 µM (active), the GI50 (P388) was 0.0807 µM (active) and the GI50 (P388/ADR) was 0.303 µM (active).
With `O=P1(NCCCl)OCCCN1CCCl` (configuration not stated) [IFOSFAMIDE] the GI50 (SN12K1) was 371 µM (inactive), the GI50 (P388) was 232 µM (inactive) and the GI50 (P388/ADR) was 215 µM (inactive).
